Experiments:
[1] = system: Anopheles stephensi (Indian malaria mosquito); experiment: whole plant or invertebrate; details: Anopheles stephensi
Description: […] Once the deposits were dry, five non-blood fed adult female Anopheles stephensi (between two to five days old) were added to each well, and sustained with a 10% sucrose solution in a cotton wool plug. Assessment of the knockdown after 1 hour, and mortality after 48 hours was carried out.
(§1) In case of multiple tests, the mean value is reported.

[2] = system: FUMOZ; experiment: Example B5: bottle based cross resistance study (CDC bottle assay); assay type: in vivo; details: Anopheles funestus, 24 h, Table B5c; 25 ppm; after 24 hours; FUMOZ
Procedure, shortened: (§2)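 Glass bottles were coated with test compound from ethanol. Mortality was scored at 24 h after recovery on 10% sucrose; values are means of ≥4 replicates, with a susceptible strain run alongside.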

[3] = system: VK7; experiment: as above; assay type: in vivo; details: Anopheles coluzzii, 24 h, Table B5c, after 24 hours
Procedure, shortened: as §2

[4] = system: An. Gambiae Tiassalé; experiment: as above; assay type: in vivo
[5] = system: An. Gambiae Kisumu sus; experiment: as above; assay type: in vivo; details: Kisumu sus
[6] = system: An. stephensi; experiment: as above; assay type: in vivo
[7] = system: Aedes aegypti; experiment: whole plant or invertebrate; details: Aedes aegypti, 48 h
Procedure, shortened: (§3)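 Non-blood-fed adult females (2–5 days old), ten per well, were placed on dried ethanol deposits of the test compound at a defined concentration and fed 10% sucrose. Mortality was scored at 48 hours as the mean of two replicates.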

[8] = system: Anopheles stephensi; experiment: whole plant or invertebrate; details: Anopheles stephensi, 48 h
Procedure, shortened: as §3

[9] = system: Aedes aegypti (Yellow fever mosquito); experiment: whole plant or invertebrate; details: Aedes aegypti
Description: […] Once the deposits were dry, five non-blood fed adult female Aedes aegypti (between two to five days old) were added to each well, and sustained with a 10% sucrose solution in a cotton wool plug. Assessment of the knockdown after 1 hour, and mortality after 48 hours was carried out.
as §1

[10] = system: Ae. aegypti Caymon; experiment: Example B4: cross resistance study, 6-well plate; assay type: in vivo
Description: (§4) In each study, a set of plates were infested with a known insecticide susceptible strain of mosquitoes from the same genera as the resistant strains.
(§5) Assessment of the knockdown after 60 minutes and mortality after 24 hours was carried out. Each treatment was replicated a minimum of four times, with the mean knockdown or mortality recorded.
(§6) A comparison of the knockdown and mortality of the resistant strain of mosquitoes was made to that of the susceptible to identify evidence of cross resistance.

[11] = system: An. Arabiensis Moz sus; experiment: Example B4: cross resistance study, 6-well plate; assay type: in vivo
Description: as §4, §5, §6

[12] = system: An. Gambiae Tiassalé; experiment: Example B4: cross resistance study, 6-well plate; assay type: in vivo
Description: as §4, §5, §6

[13] = system: An. Gambiae Kisumu sus; experiment: Example B4: cross resistance study, 6-well plate; assay type: in vivo
Description: as §4, §5, §6

[14] = system: An. Gambiae Kisumu rdl; experiment: Example B4: cross resistance study, 6-well plate; assay type: in vivo
Description: as §4, §5, §6

[15] = system: An. stephensi; experiment: Example B4: cross resistance study, 6-well plate; assay type: in vivo
Description: as §4, §5, §6

[16] = system: Ae. Aegypti New Orleans; experiment: Example B4: cross resistance study, 6-well plate; assay type: in vivo
Description: as §4, §5, §6

For `CO/C=C(/C(=O)OC)c1ccccc1Oc1nc(C(C)(C)C)ns1` [Compound 7, Methyl (E)-2-[2-[(3-tert-butyl-1,2,4-thiadiazol-5-yl)oxy]phenyl]-3-methoxy-prop-2-enoate], the pest or weed control at 20 ppm ([1]; 1 h, read-out: Knockdown) was 67%, the mortality at 20 ppm ([1]; 48 h) was 100% and the mortality at 25 ppm [2] was 20%. The mortality at 25 ppm [3] was 19%, the “Knockdown (%) at 15 mins” value ([4]; 20 ppm, bottle, Tiassalé) was 70% and the “Knockdown (%) at 60 mins” value ([4]; 20 ppm, bottle, Tiassalé) was 97%. For the same molecule, the mortality at 20 ppm ([4]; Anopheles gambiae) was 95%, the “Knockdown (%) at 15 mins” value ([5]; 20 ppm, bottle) was 100% and the “Knockdown (%) at 60 mins” value ([5]; 20 ppm, bottle) was 100%. For the same molecule, the mortality at 20 ppm ([5]; Anopheles gambiae, 20 ppm, bottle, one hour exposure, after 24 hours) was 99%, the mortality at 25 ppm ([5]; Anopheles gambiae, 24 h, Table B5c, 25 ppm, after 24 hours) was 97% and the “Knockdown (%) at 15 mins” value ([6]; 20 ppm, bottle, An. stephensi) was 37%. For the same molecule, the “Knockdown (%) at 60 mins” value ([6]; 20 ppm, bottle, An. stephensi) was 100%, the mortality at 20 ppm ([6]; Anopheles stephensi) was 100% and the mortality at 5 ppm [7] was 78%. The mortality at 5 ppm [8] was 95%, the pest or weed control at 20 ppm ([9]; 1 h, read-out: Knockdown) was 100% and the mortality at 20 ppm ([9]; 48 h) was 100%. The Knockdown ([10]; 2.50 ppm, after 60 minutes, Caymon) was 52%, the mortality at 2.5 ppm ([10]; Aedes aegypti, 24 h) was 28% and the Knockdown ([11]; 2.50 ppm, after 60 minutes, Moz sus) was 95%. For the same molecule, the mortality at 2.5 ppm ([11]; Anopheles arabiensis, 24 h) was 100%, the Knockdown ([12]; 2.50 ppm, after 60 minutes, Tiassalé) was 90% and the mortality at 2.5 ppm ([12]; Anopheles gambiae, 24 h) was 85%. The Knockdown ([13]; 2.50 ppm, after 60 minutes, Kisumu sus) was 100%, the mortality at 2.5 ppm ([13]; Anopheles gambiae, 24 h) was 100% and the Knockdown ([14]; 2.50 ppm, after 60 minutes, Kisumu rdl) was 90%. For the same molecule, the mortality at 2.5 ppm ([14]; Anopheles gambiae, 24 h) was 100%, the Knockdown ([15]; 2.50 ppm, after 60 minutes, An. stephensi) was 40% and the mortality at 2.5 ppm ([15]; Anopheles stephensi, 24 h) was 100%. The Knockdown ([16]; 2.50 ppm, after 60 minutes, New Orleans) was 38% and the mortality at 2.5 ppm ([16]; Aedes aegypti, 24 h) was 100%.

From patent publication US11882828B2, “Mosquito vector control compositions, methods and products utilizing same” (priority 2015, dated 2024)
